Source: patent publication US9920030B2 (priority 2006, dated 2018)
Where two headings read alike, the source gives them in different places.

How the values were obtained:
Format in all cases: in vivo
[1] = test system: Phytophthora infestans (the causal agent of tomato late blight); assay: whole plant or invertebrate; details: for pest or weed control at 40 ppm / pest or weed control at 10 µg/mL: Phytophthora infestans, 96 h, read-out: Percent Disease Control, Test C
[2] = test system: Phytophthora infestans (the causal agent of tomato late blight); assay: whole plant or invertebrate; details: for pest or weed control at 40 ppm / pest or weed control at 10 µg/mL: Phytophthora infestans, 144 h, read-out: Percent Disease Control, Test B
[3] = test system: Plasmopara vilicola (the causal agent of grape downy mildew); assay: Test A: grape downy mildew, test suspension sprayed on grape seedlings after inoculation, visual disease rating; details: for pest or weed control at 40 ppm / pest or weed control at 10 µg/mL: Plasmopara, 144 h, read-out: Percent Disease Control, Test A
Description: General protocol for preparing test suspensions for Test A-C: The test compounds were first dissolved in acetone in an amount equal to 3% of the final volume and then suspended at the desired concentration (in ppm) in acetone and purified water (50/50 mix by volume) containing 250 ppm of the surfactant Trem® 014 (polyhydric alcohol esters). The resulting test suspensions were then used in Tests A-C. Spraying a 200 ppm test suspension to the point of run-off on the test plants was equivalent to a rate of 500 g/ha.
Grape seedlings were inoculated with a spore suspension of Plasmopara vilicola (the causal agent of grape downy mildew) and incubated in a saturated atmosphere at 20° C. for 24 h. After a short drying period, the test suspension was sprayed to the point of run-off on the grape seedlings, which were then moved to a growth chamber at 20° C. for 5 days, after which time the grape seedling were placed back into a saturated atmosphere at 20° C. for 24 h. Upon removal, visual disease ratings were made.
Results for Tests A-C are given in Table A. In the table, a rating of 100 indicates 100% disease control and a rating of 0 indicates no disease control (relative to the controls). A dash (-) indicates no test results.

[4] = compounds without asterisk (application rate not given), 100 = 100% disease control, 0 = no control relative to the controls

Compound | Percent Disease Control, Test C [1, 4] | Percent Disease Control, Test B [2, 4] | Percent Disease Control, Test A [3, 4] | other results
1-[4-[4-(4,5-dihydro-5-(2-pyridinyl)-3-isoxazolyl)-2-thiazolyl]-1-piperidinyl]-2-[5-methyl-3-(trifluoromethyl)-1H-pyrazol-1-yl]ethanone [Compound 98] | 99% | 100% | 99% | –
1-[4-[4-(4,5-dihydro-5-phenyl-3-isoxazolyl)-2-thiazolyl]-3,6-dihydro-1(2H)-pyridinyl]-2-[5-methyl-3-(trifluoromethyl)-1H-pyrazol-1 yl]ethanone [Compound 217] | 86% | 95% | 0% | –
1-[4-[4-[5-(2-chlorophenyl)-4,5-dihydro-3-isoxazolyl]-2-thiazolyl]-1-piperidinyl]-2-[5-methyl-3-(trifluoromethyl)-1H-pyrazol-1-yl]ethanone [Compound 8] | 99% | 100% | 96% | –
1-[4-[4-[(5R)-4,5-dihydro-5-phenyl-3-isoxazolyl]-2-thiazolyl]-1-piperidinyl]-2-[5-methyl-3-(trifluoromethyl)-1H-pyrazol-1-yl]ethanone [Compound 3] | 0% | 47% | 52% | –
2-[5-chloro-3-(trifluoromethyl)-1H-pyrazol-1-yl]-1-[4-[4-(4,5-dihydro-5-phenyl-3-isoxazolyl)-2-thiazolyl]-1-piperidinyl]ethanone [Compound 107] | 99% | 100% | 97% | –
Cc1cc(C(F)(F)F)nn1CC(=O)N1CCC(c2nc(C3=NOC4(CCCCC4c4ccccc4)C3)cs2)CC1 (mixture of isomers) [Compound 170] | – | – | – | Percent Disease Control, Test C ([1]; * tested at 40 ppm): 93%; Percent Disease Control, Test B ([2]; * tested at 40 ppm): 100%; Percent Disease Control, Test A ([3]; * tested at 40 ppm): 99%
Cc1cc(C(F)(F)F)nn1CC(=O)N1CCC(c2nc(C3=NOC4(CCCC(c5ccccc5)C4)C3)cs2)CC1 (mixture of isomers) [Compound 171] | – | – | – | Percent Disease Control, Test C ([1]; * tested at 40 ppm): 98%; Percent Disease Control, Test B ([2]; * tested at 40 ppm): 100%; Percent Disease Control, Test A ([3]; * tested at 40 ppm): 99%
Cc1cc(C(F)(F)F)nn1CC(=O)N1CCC(c2nc(C3=NOC(c4cccc(Cl)c4)C3)cs2)CC1 (racemic) [Compound 17] | – | – | – | Percent Disease Control, Test C ([1]; * tested at 40 ppm): 99%; Percent Disease Control, Test B ([2]; * tested at 40 ppm): 99%; Percent Disease Control, Test A ([3]; * tested at 40 ppm): 100%
Cc1cc(C(F)(F)F)nn1CC(=O)N1CCC(c2nc(C3=NOC(Cc4ccccc4)C3)cs2)CC1 (racemic) [Compound 24] | 93% | 100% | 99% | –
Cc1cc(C(F)(F)F)nn1CC(=O)N1CCC(c2nc(C3=NOC(CCC(C)C)C3)cs2)CC1 (racemic) [Compound 27] | 98% | 100% | 100% | –
Cc1cc(C(F)(F)F)nn1CC(=O)N1CCC(c2nc(C3=NOC(CC(C)(C)C)C3)cs2)CC1 (racemic) [Compound 28] | 94% | 100% | 99% | –
Cc1cc(C(F)(F)F)nn1CC(=O)N1CCC(c2nc(C3=NO[C@@H](N4C(=O)c5ccccc5C4=O)C3)cs2)CC1 (racemic) [Compound 129] | – | – | – | Percent Disease Control, Test C ([1]; * tested at 40 ppm): 99%; Percent Disease Control, Test B ([2]; * tested at 40 ppm): 100%; Percent Disease Control, Test A ([3]; * tested at 40 ppm): 99%
Cc1cc(C(F)(F)F)nn1CC(=O)N1CCC(c2nc(C3=NO[C@@H](c4c(Cl)cccc4Cl)C3)cs2)CC1 (racemic) [Compound 135, 1-[4-[4-[(5R)-5-(2,6-dichlorophenyl)-4,5-dihydro-3-isoxazolyl]-2-thiazolyl]-1-piperidinyl]-2-[5-methyl-3-(trifluoromethyl)-1H-pyrazol-1-yl]ethanone] | – | – | – | pest or weed control at 40 ppm [1]: 99%; pest or weed control at 40 ppm [2]: 100%; pest or weed control at 40 ppm ([3]; * tested at 40 ppm): 100%
COc1cc(OC)c([C@H]2CC(c3csc(C4CCN(C(=O)Cn5nc(C(F)(F)F)cc5C)CC4)n3)=NO2)c(OC)c1 (racemic) [Compound 155, 1-[4-[4-[(5R)-4,5-dihydro-5-(2,4,6-trimethoxyphenyl)-3-isoxazolyl]-2-thiazolyl]-1-piperidinyl]-2-[5-methyl-3-(trifluoromethyl)-1H-pyrazol-1-yl]ethanone] | – | – | – | pest or weed control at 40 ppm [1]: 99%; pest or weed control at 40 ppm [2]: 100%; pest or weed control at 40 ppm ([3]; * tested at 40 ppm): 100%
Cc1cc(C)n(CC(=O)N2CCC(c3nc(C4=NO[C@]5(CCCc6ccccc65)C4)cs3)CC2)n1 (racemic) [Compound 164, 1-[4-[4-[(1′R)-3′,4′-dihydrospiro[isoxazole-5(4H),1′(2′H)-naphthalen]-3-yl]-2-thiazolyl]-1-piperidinyl]-2-(3,5-dimethyl-1H-pyrazol-1-yl)ethanone] | – | – | – | pest or weed control at 10 µg/mL [1]: 99%; pest or weed control at 10 µg/mL [2]: 100%; pest or weed control at 10 µg/mL ([3]; ** tested at l0 ppm): 99%
O=C(Cn1nc(C(F)(F)F)cc1C(F)(F)F)N1CCC(c2nc(C3=NO[C@]4(CCCc5ccccc54)C3)cs2)CC1 (racemic) [Compound 229, 2-[3,5-bis(trifluoromethyl)-1H-pyrazol-1-yl]-1-[4-[4-[(1′R)-3′,4′-dihydrospiro[isoxazole-5(4H), 1′(2′H)-naphthalen]-3-yl]-2-thiazolyl]-1-piperidinyl]ethanone] | – | – | – | pest or weed control at 10 µg/mL [1]: 100%; pest or weed control at 10 µg/mL [2]: 100%; pest or weed control at 10 µg/mL ([3]; ** tested at l0 ppm): 100%
O=C(Cn1nc(C(F)(F)F)cc1Cl)N1CCC(c2nc(C3=NO[C@]4(CCCc5ccccc54)C3)cs2)CC1 (racemic) [Compound 230, 2-[5-chloro-3-(trifluoromethyl)-1H-pyrazol-1-yl]-1-[4-[4-[(1′R)-3′,4′-dihydrospiro[isoxazole-5(4H), 1′(2′H)-naphthalen]-3-yl]-2-thiazolyl]-1-piperidinyl]ethanone] | – | – | – | pest or weed control at 10 µg/mL [1]: 100%; pest or weed control at 10 µg/mL [2]: 100%; pest or weed control at 10 µg/mL ([3]; ** tested at l0 ppm): 100%
O=C(Cn1nc(C(F)(F)F)cc1C(F)(F)F)N1CCC(c2nc(C3=NO[C@]4(CCc5ccccc54)C3)cs2)CC1 (racemic) [Compound 231, 2-[3,5-bis(trifluoromethyl)-1H-pyrazol-1-yl]-1-[4-[4-[(1R)-2,3-dihydrospiro[1H-indene-1,5′(4′1H)-isoxazol]-3′-yl]-2-thiazolyl]-1-piperidinyl]ethanone] | – | – | – | Percent Disease Control, Test C ([1]; ** tested at l0 ppm): 100%; Percent Disease Control, Test B ([2]; ** tested at l0 ppm): 100%; Percent Disease Control, Test A ([3]; ** tested at l0 ppm): 100%
Cc1cccc(-c2csc(C3CCN(C(=O)Cn4nc(C(F)(F)F)cc4C)CC3)n2)c1 [Compound 149] | – | 97% | 99% | –
COc1ccc(-c2csc(C3CCN(C(=O)Cn4nc(C(F)(F)F)cc4C)CC3)n2)cc1 [Compound 150] | – | 100% | 99% | –
Cc1ccc(-c2csc(C3CCN(C(=O)Cn4nc(C(F)(F)F)cc4C)CC3)n2)cc1 [Compound 151] | – | 99% | 100% | –
COc1cccc(-c2csc(C3CCN(C(=O)Cn4nc(C(F)(F)F)cc4C)CC3)n2)c1 [Compound 152] | – | 89% | 91% | –
COc1ccccc1-c1csc(C2CCN(C(=O)Cn3nc(C(F)(F)F)cc3C)CC2)n1 [Compound 153] | – | 0% | 73% | –
